Patent US9993494B2, “Compositions and methods for treating fibrotic disease” (eFFECTOR Therapeutics, Inc., priority 2014, dated 2018)

System: normal human lung fibroblasts
Assay: Ribosomal profiling: translational efficiency in TGFβ-treated fibroblasts
Format: cell-based
Conditions: TGFβ-treated fibroblasts
Method: Ribosomal profiling allows for measurement of changes in transcription and translation on a genome-wide basis accompanying TGFβ-dependent transformation of fibroblasts to myofibroblasts. Ribosomal profiles of the TGFβ-treated fibroblasts from Example 1 (about 6×10^6 cells/10 cm plate) were prepared and analyzed for changes in translational efficiencies with respect to potential disease-associated cellular changes accompanying this TGFβ-induced transformation.
Briefly, cells were washed with cold PBS supplemented with cycloheximide and lysed with 1× mammalian cell lysis buffer for 10 minutes on ice. Lysates were clarified by centrifugation for 10 minutes at 14,000 rpm and supernatants were collected. Cell lysates were processed to generate ribosomal protected fragments and total mRNA according to the instructions included with the ARTseq Ribosome Profiling Kit (Illumina, San Diego, Calif.). Sequencing of total RNA (RNA) and of ribosome-protected fragments of RNA (RPF) was carried out using RNA-Seq methodology according to the manufacturer's instructions (Illumina). To analyze the ribosomal profiles, RNA-Seq reads were processed with tools from the FASTX-Toolkit (fastq_quality_trimmer, fastx_clipper and fastx_trimmer). Unprocessed and processed reads were evaluated for a variety of quality measures using FastQC, and processed reads were mapped to the human genome using TopHat (see, e.g., Trapnell et al., Bioinformatics 25:1105, 2009). Gene-by-gene assessment of the number of fragments strictly and uniquely mapping to the coding region of each gene was conducted using HTSeq-count, a component of the HTSeq package. […] Genes with low counts in either RPF or RNA were excluded from differential analyses. Pathway and network analyses of differential data were conducted using Ingenuity Pathway Analysis (IPA).

## COC(=O)[C@H]1[C@@H](O)[C@@]2(O)c3c(OC)cc(O[C@@H]4O[C@@H]([C@H](O)CO)CO[C@H]4OC)cc3O[C@@]2(c2ccc(OC)cc2)[C@@H]1c1ccccc1 [Silvestrol]
ENSG00000163682
  renormalizing the translational profile of RPL9: − (− = <0.9)
ENSG00000164292
  renormalizing the translational profile of RHOBTB3: − (− = <0.9)
ENSG00000164588
  renormalizing the translational profile of HCN1: − (− = <0.9)
ENSG00000165502
  renormalizing the translational profile of RPL36AL: − (− = <0.9)
ENSG00000166441
  renormalizing the translational profile of RPL27A: − (− = <0.9)
ENSG00000166503
  renormalizing the translational profile of RP11-382A20.3.1: − (− = <0.9)
ENSG00000166839
  renormalizing the translational profile of ANKDD1A: − (− = <0.9)
ENSG00000167526
  renormalizing the translational profile of RPL13: − (− = <0.9)
ENSG00000167658
  renormalizing the translational profile of EEF2: − (− = <0.9)
ENSG00000169239
  renormalizing the translational profile of CA5B: + (+ = 0.9 to 1.5)
ENSG00000170681
  renormalizing the translational profile of MURC: − (− = <0.9)
ENSG00000170801
  renormalizing the translational profile of HTRA3: − (− = <0.9)
ENSG00000171408
  renormalizing the translational profile of PDE7B: + (+ = 0.9 to 1.5)
ENSG00000171517
  renormalizing the translational profile of LPAR3: + (+ = 0.9 to 1.5)
ENSG00000171793
  renormalizing the translational profile of CTPS: − (− = <0.9)
ENSG00000172053
  renormalizing the translational profile of QARS: − (− = <0.9)
ENSG00000172809
  renormalizing the translational profile of RPL38: − (− = <0.9)
ENSG00000174100
  renormalizing the translational profile of MRPL45: − (− = <0.9)
ENSG00000174444
  renormalizing the translational profile of RPL4: − (− = <0.9)
ENSG00000174748
  renormalizing the translational profile of RPL15: − (− = <0.9)
ENSG00000175084
  renormalizing the translational profile of DES: − (− = <0.9)
ENSG00000175390
  renormalizing the translational profile of EIF3F: − (− = <0.9)
ENSG00000175505
  renormalizing the translational profile of CLCF1: + (+ = 0.9 to 1.5)
ENSG00000176020
  renormalizing the translational profile of AMIGO3: − (− = <0.9)
ENSG00000176438
  renormalizing the translational profile of C14orf49: − (− = <0.9)
ENSG00000177600
  renormalizing the translational profile of RPLP2: − (− = <0.9)
ENSG00000178035
  renormalizing the translational profile of IMPDH2: − (− = <0.9)
ENSG00000178401
  renormalizing the translational profile of DNAJC22: − (− = <0.9)
ENSG00000182899
  renormalizing the translational profile of RPL35A: − (− = <0.9)
ENSG00000182909
  renormalizing the translational profile of LENG9: + (+ = 0.9 to 1.5)
ENSG00000183172
  renormalizing the translational profile of C22orf32: − (− = <0.9)
ENSG00000183971
  renormalizing the translational profile of NPW: − (− = <0.9)
ENSG00000184588
  renormalizing the translational profile of PDE4B: +++ (+++ = >2.0)
ENSG00000185008
  renormalizing the translational profile of ROBO2: − (− = <0.9)
ENSG00000185920
  renormalizing the translational profile of PTCH1: − (− = <0.9)
ENSG00000186184
  renormalizing the translational profile of POLR1D: − (− = <0.9)
ENSG00000187240
  renormalizing the translational profile of DYNC2H1: ++ (++ = 1.5 to 2.0)
ENSG00000188846
  renormalizing the translational profile of RPL14: − (− = <0.9)
ENSG00000188906
  renormalizing the translational profile of LRRK2: − (− = <0.9)
ENSG00000196531
  renormalizing the translational profile of NACA: − (− = <0.9)
ENSG00000196878
  renormalizing the translational profile of LAMB3: + (+ = 0.9 to 1.5)
ENSG00000197111
  renormalizing the translational profile of PCBP2: + (+ = 0.9 to 1.5)
ENSG00000197442
  renormalizing the translational profile of MAP3K5: − (− = <0.9)
ENSG00000197756
  renormalizing the translational profile of RPL37A: − (− = <0.9)
ENSG00000197958
  renormalizing the translational profile of RPL12: − (− = <0.9)
ENSG00000198121
  renormalizing the translational profile of LPAR1: − (− = <0.9)
ENSG00000198242
  renormalizing the translational profile of RPL23A: − (− = <0.9)
ENSG00000198755
  renormalizing the translational profile of RPL10A: − (− = <0.9)
ENSG00000198918
  renormalizing the translational profile of RPL39: − (− = <0.9)
ENSG00000204397
  renormalizing the translational profile of CARD16: + (+ = 0.9 to 1.5)
ENSG00000204520
  renormalizing the translational profile of MICA: − (− = <0.9)
ENSG00000204628
  renormalizing the translational profile of GNB2L1: − (− = <0.9)
ENSG00000215472
  renormalizing the translational profile of RPL17: − (− = <0.9)
ENSG00000229117
  renormalizing the translational profile of RPL41: − (− = <0.9)
ENSG00000241685
  renormalizing the translational profile of ARPC1A: − (− = <0.9)
ENSG00000254772
  renormalizing the translational profile of EEF1G: − (− = <0.9)
Duplicate ribosomal profiles
  number of genes whose translational efficiency was uniquely modulated by the compound: 26 genes
Gene RPS2 (ENSG00000140988)
  effect in renormalizing the translational profile of the gene: − (− = <0.9)
Gene RPS3 (ENSG00000149273)
  effect in renormalizing the translational profile of the gene: − (− = <0.9)
Gene RPS3A (ENSG00000145425)
  effect in renormalizing the translational profile of the gene: − (− = <0.9)
Gene RPS4X (ENSG00000198034)
  effect in renormalizing the translational profile of the gene: − (− = <0.9)
Gene RPS4Y1 (ENSG00000129824)
  effect in renormalizing the translational profile of the gene: − (− = <0.9)
Gene RPS5 (ENSG00000083845)
  effect in renormalizing the translational profile of the gene: − (− = <0.9)
Gene RPS6 (ENSG00000137154)
  effect in renormalizing the translational profile of the gene: − (− = <0.9)
